Relative viability data for seven cell lines are collected here from the supplement of paper PMC10307832.

Assay in all cases: relative viability (nuclei count vs DMSO), 5 days (fraction); higher = more cells survive
Compound in the assay “Gemcitabine + Alpelisib”: Nc1ccn([C@@H]2O[C@H](CO)[C@@H](O)C2(F)F)c(=O)n1 [Gemcitabine] + Cc1nc(NC(=O)N2CCC[C@H]2C(N)=O)sc1-c1ccnc(C(C)(C)C(F)(F)F)c1 [Alpelisib] (partner 2 µM)
In short, it runs like this: (§1)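 Lung cancer cell lines were seeded in 1536-well plates and dosed by pin tool the next day, with either a single drug or a fixed anchor-drug dose combined with five library-drug doses (not always all listed) spaced in √10 steps. Five days later, one step fixed the cells and stained their nuclei (final 0.05% Triton X-100, 1% formaldehyde, 1 ug/ml Hoechst), and nuclei were counted on 4× images. Relative viability is the nuclei count in treated wells divided by the count in vehicle wells, and each value is the median of duplicate plates.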

Compound in the assay “Gemcitabine + Pemetrexed”: Nc1ccn([C@@H]2O[C@H](CO)[C@@H](O)C2(F)F)c(=O)n1 [Gemcitabine] + Nc1nc2[nH]cc(CCc3ccc(C(=O)N[C@@H](CCC(=O)O)C(=O)O)cc3)c2c(=O)[nH]1 [Pemetrexed] (partner 0.2 µM)
Summed up:
as §1

Compound in the assay “Gemcitabine + Foretinib”: Nc1ccn([C@@H]2O[C@H](CO)[C@@H](O)C2(F)F)c(=O)n1 [Gemcitabine] + COc1cc2c(Oc3ccc(NC(=O)C4(C(=O)Nc5ccc(F)cc5)CC4)cc3F)ccnc2cc1OCCCN1CCOCC1 [Foretinib] (partner 0.25 µM)
In short, it runs like this: as §1

Compound in the assay “Gemcitabine + Olaparib”: Nc1ccn([C@@H]2O[C@H](CO)[C@@H](O)C2(F)F)c(=O)n1 [Gemcitabine] + O=C(c1cc(Cc2n[nH]c(=O)c3ccccc23)ccc1F)N1CCN(C(=O)C2CC2)CC1 [Olaparib] (partner 8 µM)
Summed up: as §1

Regarding NCI-H1666, the relative viability with Gemcitabine + Alpelisib (first compound 0.001 µM) amounted to 0.863; in the assay with Gemcitabine + Alpelisib (first compound 0.003162 µM) it was 0.92; in the assay with Gemcitabine + Alpelisib (first compound 0.01 µM) it was 0.364; in the assay with Gemcitabine + Alpelisib (first compound 0.03162 µM), 0.232; with Gemcitabine + Alpelisib (first compound 0.1 µM), 0.279; with Gemcitabine + Pemetrexed (first compound 0.001 µM), 0.88. Also, the relative viability was found to be 0.842 with Gemcitabine + Pemetrexed (first compound 0.003162 µM); 0.842 in the assay with Gemcitabine + Pemetrexed (first compound 0.01 µM); 0.699 in the assay with Gemcitabine + Pemetrexed (first compound 0.03162 µM); 0.52 with Gemcitabine + Pemetrexed (first compound 0.1 µM); 0.9 in the assay with Gemcitabine + Foretinib (first compound 0.001 µM); 0.991 with Gemcitabine + Foretinib (first compound 0.003162 µM). Further, the relative viability with Gemcitabine + Foretinib (first compound 0.01 µM) is 0.889; with Gemcitabine + Foretinib (first compound 0.03162 µM) it was 0.619; with Gemcitabine + Foretinib (first compound 0.1 µM), 0.428; in the assay with Gemcitabine + Olaparib (first compound 0.001 µM), 0.777; with Gemcitabine + Olaparib (first compound 0.003162 µM), 0.707; in the assay with Gemcitabine + Olaparib (first compound 0.01 µM) it was 0.748. The relative viability is 0.76 with Gemcitabine + Olaparib (first compound 0.03162 µM) and 0.597 with Gemcitabine + Olaparib (first compound 0.1 µM).
For the cell line NCI-H1355, the relative viability in the assay with Gemcitabine + Alpelisib (first compound 0.001 µM) stood at 0.756; with Gemcitabine + Alpelisib (first compound 0.003162 µM) it was 0.569; with Gemcitabine + Alpelisib (first compound 0.01 µM), 0.135; in the assay with Gemcitabine + Alpelisib (first compound 0.03162 µM) it was 0.156; in the assay with Gemcitabine + Alpelisib (first compound 0.1 µM) it was 0.116; in the assay with Gemcitabine + Pemetrexed (first compound 0.001 µM) it was 1. Also, the relative viability with Gemcitabine + Pemetrexed (first compound 0.003162 µM) amounted to 0.885; with Gemcitabine + Pemetrexed (first compound 0.01 µM) it was 0.455; in the assay with Gemcitabine + Pemetrexed (first compound 0.03162 µM) it was 0.173; with Gemcitabine + Pemetrexed (first compound 0.1 µM), 0.162; in the assay with Gemcitabine + Foretinib (first compound 0.001 µM) it was 0.858; with Gemcitabine + Foretinib (first compound 0.003162 µM), 0.7. Moreover, the relative viability amounted to 0.247 with Gemcitabine + Foretinib (first compound 0.01 µM); 0.2 in the assay with Gemcitabine + Foretinib (first compound 0.03162 µM); 0.187 in the assay with Gemcitabine + Foretinib (first compound 0.1 µM); 0.667 with Gemcitabine + Olaparib (first compound 0.001 µM); 0.441 in the assay with Gemcitabine + Olaparib (first compound 0.003162 µM); 0.141 with Gemcitabine + Olaparib (first compound 0.01 µM). Besides, the relative viability in the assay with Gemcitabine + Olaparib (first compound 0.03162 µM) amounted to 0.157; in the assay with Gemcitabine + Olaparib (first compound 0.1 µM), 0.151.
Take HCC-827: the relative viability was determined as 0.895 in the assay with Gemcitabine + Alpelisib (first compound 0.001 µM); 0.48 with Gemcitabine + Alpelisib (first compound 0.003162 µM); 0.56 with Gemcitabine + Alpelisib (first compound 0.01 µM); 0.391 in the assay with Gemcitabine + Alpelisib (first compound 0.03162 µM); 0.167 with Gemcitabine + Alpelisib (first compound 0.1 µM); 0.301 with Gemcitabine + Pemetrexed (first compound 0.001 µM). The relative viability amounted to 0.224 with Gemcitabine + Pemetrexed (first compound 0.003162 µM); 0.248 with Gemcitabine + Pemetrexed (first compound 0.01 µM); 0.176 in the assay with Gemcitabine + Pemetrexed (first compound 0.03162 µM); 0.145 in the assay with Gemcitabine + Pemetrexed (first compound 0.1 µM); 1 with Gemcitabine + Foretinib (first compound 0.001 µM); 0.865 with Gemcitabine + Foretinib (first compound 0.003162 µM). The relative viability with Gemcitabine + Foretinib (first compound 0.01 µM) stood at 0.565; with Gemcitabine + Foretinib (first compound 0.03162 µM) it was 0.332; with Gemcitabine + Foretinib (first compound 0.1 µM), 0.177; in the assay with Gemcitabine + Olaparib (first compound 0.001 µM), 0.673; in the assay with Gemcitabine + Olaparib (first compound 0.003162 µM), 0.434; with Gemcitabine + Olaparib (first compound 0.01 µM) it was 0.384. Besides, the relative viability in the assay with Gemcitabine + Olaparib (first compound 0.03162 µM) is 0.0193; with Gemcitabine + Olaparib (first compound 0.1 µM), 0.162.
For HARA, the relative viability with Gemcitabine + Alpelisib (first compound 0.001 µM) was determined as 0.827; with Gemcitabine + Alpelisib (first compound 0.003162 µM), 0.808; with Gemcitabine + Alpelisib (first compound 0.01 µM), 0.682; in the assay with Gemcitabine + Alpelisib (first compound 0.03162 µM), 0.233; with Gemcitabine + Alpelisib (first compound 0.1 µM), 0.0894; in the assay with Gemcitabine + Pemetrexed (first compound 0.001 µM), 0.272. The relative viability with Gemcitabine + Pemetrexed (first compound 0.003162 µM) was 0.263; with Gemcitabine + Pemetrexed (first compound 0.01 µM), 0.236; in the assay with Gemcitabine + Pemetrexed (first compound 0.03162 µM), 0.196; with Gemcitabine + Pemetrexed (first compound 0.1 µM) it was 0.0974; with Gemcitabine + Foretinib (first compound 0.001 µM) it was 0.965; with Gemcitabine + Foretinib (first compound 0.003162 µM), 0.894. For the same cell line, the relative viability in the assay with Gemcitabine + Foretinib (first compound 0.01 µM) was 0.853; with Gemcitabine + Foretinib (first compound 0.03162 µM) it was 0.119; with Gemcitabine + Foretinib (first compound 0.1 µM), 0.0735; in the assay with Gemcitabine + Olaparib (first compound 0.001 µM), 0.927; with Gemcitabine + Olaparib (first compound 0.003162 µM), 1.1; in the assay with Gemcitabine + Olaparib (first compound 0.01 µM) it was 0.535. The relative viability with Gemcitabine + Olaparib (first compound 0.03162 µM) is 0.162; with Gemcitabine + Olaparib (first compound 0.1 µM), 0.0774.
For the cell line HCC-366, the relative viability with Gemcitabine + Alpelisib (first compound 0.001 µM) was 0.516; in the assay with Gemcitabine + Alpelisib (first compound 0.003162 µM) it was 0.359; with Gemcitabine + Alpelisib (first compound 0.01 µM), 0.0565; with Gemcitabine + Alpelisib (first compound 0.03162 µM), 0.0184; in the assay with Gemcitabine + Alpelisib (first compound 0.1 µM) it was 0.0102; with Gemcitabine + Pemetrexed (first compound 0.001 µM) it was 0.155. The relative viability in the assay with Gemcitabine + Pemetrexed (first compound 0.003162 µM) stood at 0.212; with Gemcitabine + Pemetrexed (first compound 0.01 µM), 0.189; with Gemcitabine + Pemetrexed (first compound 0.03162 µM), 0.0374; with Gemcitabine + Pemetrexed (first compound 0.1 µM), 0.0257; with Gemcitabine + Foretinib (first compound 0.001 µM) it was 0.965; with Gemcitabine + Foretinib (first compound 0.003162 µM), 0.989. In addition, the relative viability in the assay with Gemcitabine + Foretinib (first compound 0.01 µM) turned out to be 0.417; with Gemcitabine + Foretinib (first compound 0.03162 µM) it was 0.0476; with Gemcitabine + Foretinib (first compound 0.1 µM) it was 0.0377; in the assay with Gemcitabine + Olaparib (first compound 0.001 µM) it was 0.332; with Gemcitabine + Olaparib (first compound 0.003162 µM), 0.389; with Gemcitabine + Olaparib (first compound 0.01 µM), 0.124. Also, the relative viability was 0.0348 with Gemcitabine + Olaparib (first compound 0.03162 µM) and 0.0152 in the assay with Gemcitabine + Olaparib (first compound 0.1 µM).
As to NCI-H322M, the relative viability with Gemcitabine + Alpelisib (first compound 0.001 µM) came to 0.562; in the assay with Gemcitabine + Alpelisib (first compound 0.003162 µM), 0.292; with Gemcitabine + Alpelisib (first compound 0.01 µM), 0.245; with Gemcitabine + Alpelisib (first compound 0.03162 µM), 0.294; in the assay with Gemcitabine + Alpelisib (first compound 0.1 µM) it was 0.271; with Gemcitabine + Pemetrexed (first compound 0.001 µM), 0.658. In addition, the relative viability with Gemcitabine + Pemetrexed (first compound 0.003162 µM) came to 0.367; with Gemcitabine + Pemetrexed (first compound 0.01 µM), 0.273; in the assay with Gemcitabine + Pemetrexed (first compound 0.03162 µM), 0.329; in the assay with Gemcitabine + Pemetrexed (first compound 0.1 µM), 0.363; in the assay with Gemcitabine + Foretinib (first compound 0.001 µM), 0.985; in the assay with Gemcitabine + Foretinib (first compound 0.003162 µM), 0.383. In addition, the relative viability with Gemcitabine + Foretinib (first compound 0.01 µM) was 0.289; in the assay with Gemcitabine + Foretinib (first compound 0.03162 µM) it was 0.272; with Gemcitabine + Foretinib (first compound 0.1 µM), 0.29; with Gemcitabine + Olaparib (first compound 0.001 µM), 0.564; with Gemcitabine + Olaparib (first compound 0.003162 µM), 0.445; with Gemcitabine + Olaparib (first compound 0.01 µM), 0.356. Besides, the relative viability in the assay with Gemcitabine + Olaparib (first compound 0.03162 µM) was found to be 0.369; in the assay with Gemcitabine + Olaparib (first compound 0.1 µM), 0.411.
Take NCI-H2347: the relative viability was 1.05 with Gemcitabine + Alpelisib (first compound 0.001 µM); 0.815 with Gemcitabine + Alpelisib (first compound 0.003162 µM); 0.752 in the assay with Gemcitabine + Alpelisib (first compound 0.01 µM); 0.574 with Gemcitabine + Alpelisib (first compound 0.03162 µM); 0.324 with Gemcitabine + Alpelisib (first compound 0.1 µM); 0.43 in the assay with Gemcitabine + Pemetrexed (first compound 0.001 µM). Moreover, the relative viability in the assay with Gemcitabine + Pemetrexed (first compound 0.003162 µM) was found to be 0.391; with Gemcitabine + Pemetrexed (first compound 0.01 µM) it was 0.409; in the assay with Gemcitabine + Pemetrexed (first compound 0.03162 µM), 0.357; with Gemcitabine + Pemetrexed (first compound 0.1 µM) it was 0.366; with Gemcitabine + Foretinib (first compound 0.001 µM), 0.817; in the assay with Gemcitabine + Foretinib (first compound 0.003162 µM) it was 0.731. Further, the relative viability with Gemcitabine + Foretinib (first compound 0.01 µM) turned out to be 0.826; with Gemcitabine + Foretinib (first compound 0.03162 µM), 0.492; with Gemcitabine + Foretinib (first compound 0.1 µM), 0.35; in the assay with Gemcitabine + Olaparib (first compound 0.001 µM), 0.603; with Gemcitabine + Olaparib (first compound 0.003162 µM) it was 0.529; in the assay with Gemcitabine + Olaparib (first compound 0.01 µM), 0.496. The relative viability turned out to be 0.383 with Gemcitabine + Olaparib (first compound 0.03162 µM) and 0.373 with Gemcitabine + Olaparib (first compound 0.1 µM).
